Test results as given in ChEMBL document CHEMBL1127660, “Isolation, structural determination, and biological activity of 6 alpha-hydroxytaxol, the principal human metabolite of taxol” (J Med Chem, 1994).

Columns and labels:
MOLT-4 = experiment: The compound was tested for inhibition concentration against MOLT-4 cell line; type: functional, cell-based; conditions: Homo sapiens
U-937 = experiment: The compound was tested for inhibition concentration against U-937 cell line; type: functional, cell-based; conditions: Homo sapiens

IC50 (MOLT-4): 1.6 nM
IC50 (U-937): 1 nM
Structure (SMILES): CC(=O)O[C@H]1C(=O)[C@@]2(C)[C@H]([C@H](OC(=O)c3ccccc3)[C@]3(O)C[C@H](OC(=O)[C@H](O)[C@@H](NC(=O)c4ccccc4)c4ccccc4)C(C)=C1C3(C)C)[C@]1(OC(C)=O)CO[C@@H]1C[C@@H]2O [PACLITAXEL]
